These results are taken from US6495592B1, “Tracheal smooth muscle relaxants” (Nippon Suisan Kaisha, Ltd., priority 1996, dated 2002).

The subject of the first assay is tracheal smooth muscle. The experiment in a line: Dilating action to contraction of tracheal smooth muscle (potassium chloride-induced contraction of isolated trachea segment, Magnus tube). Type of assay: cell-based. The settings on record: 30 μM test substance; contraction induced by 72.7 mM potassium chloride; guinea pig (Hartley, male) trachea segment. How it is done:
Each sample is tested by using two segment obtained from one animal; the trachea was removed from a guinea pig (Hartley, male, seven weeks age) and was made the segment, 6 mm in length. The segment was suspended in a Magnus tube containing a physiological salt solution of 37° C. with a flow of mixed gas consisting of 95% oxygen and 5% carbon dioxide gas. A base-line tension of 1 g was applied to the segment and, after tension of the sample became stable, the solution was exchanged with a solution containing 72.7 mM of potassium chloride to induce a contraction. When tension of the contraction by potassium chloride became stable, a compound of the formula (1) was added as a test substance to measure the change in the tension. The test substance was dissolved in dimethyl sulfoxide and added thereto. Incidentally, at the stage of addition, the final concentration of dimethyl sulfoxide was made not more than 0.3%. Changes in the tension was recorded on a recorder (R-64V, Rika Denki) after introducing to an amplifier for strain pressure (AP-621G, Nippon Koden Kogyo) via an FD pickup transducer (TB-611T, Nippon Koden Kogyo). Tension before addition of potassium chloride was set as 0 while that after addition of potassium chloride was set as 100 and the suppressing rate for contraction by potassium chloride after addition of the test substance was expressed by a relative percentage whereby the activity was determined according to the following criteria.
The Compound No. in the table is the same as that in the Production Examples.
For “2-thiomethyl-7,9-dihydroxy-10,11-dihydrodibenzo[b,f]oxepin-10-one S-oxide [Compound 109]”, the “Activity (suppressing rate for contraction by potassium chloride)” value is on record as “− (no suppressing action of not less than 50% was achieved at 30 μM)”.

The same assay, now with this note: Cavia porcellus; 30 μM test substance; contraction induced by 72.7 mM potassium chloride; guinea pig (Hartley, male) trachea segment; read-out: Activity (suppressing rate for contraction by potassium chloride).
Turning to `O=C1Cc2ccccc2Oc2c(O)c(O)cc(O)c21` [Compound 2, 6,7,9-trihydroxy-10,11-dihydrodibenz[b,f]oxepin-10-one], the inhibition at 30 µM was ≤ 50%.

Regarding `O=C1Cc2ccccc2Oc2c(O)ccc(O)c21` [Compound 7, 6,9-dihydroxy-10,11-dihydrodibenz[b,f]oxepin-10-one], the inhibition at 30 µM was ≥ 50%.

With `O=C1Cc2ccccc2Oc2c1ccc(O)c2O` [Compound 8, 6,7-dihydroxy-10,11-dihydrodibenz[b,f]oxepin-10-one], the inhibition at 30 µM was ≤ 50%.

With `O=C1Cc2ccccc2Oc2cc(O)c(O)c(O)c21` [Compound 9, 7,8,9-trihydroxy-10,11-dihydrodibenz[b,f]oxepin-10-one], the inhibition at 30 µM is ≤ 50%.

With `Oc1cc(O)c2c(c1)Oc1ccccc1CC2` [Compound 12, 10,11-dihydrodibenz[b,f]oxepin-1,3-diol], the inhibition at 30 µM was ≥ 50%.

With `O=C1Cc2ccccc2Oc2cc(O)c(O)cc21` [Compound 13, 7,8-dihydroxy-10,11-dihydrodibenz[b,f]oxepin-10-one], the inhibition at 30 µM is ≤ 50%.

`Oc1cc2c(cc1O)Oc1ccccc1CC2` [Compound 14, 10,11-dihydrodibenz[b,f]oxepin-2,3-diol]: the inhibition at 30 µM is ≤ 50%.

`O=C1Cc2ccc(Cl)cc2Oc2cc(O)cc(O)c21` [Compound 15, 3-chloro-7,9-dihydroxy-10,11-dihydrodibenz[b,f]oxepin-10-one]: the inhibition at 30 µM was ≥ 50%.

Regarding `Oc1cc(O)c2c(c1)Oc1cc(Cl)ccc1CC2` [Compound 16, 7-chloro-10,11-dihydrodibenz[b,f]oxepin-1,3-diol], the inhibition at 30 µM was ≤ 50%.

Turning to `O=C1Cc2cc(Cl)ccc2Oc2cc(O)cc(O)c21` [Compound 19, 2-chloro-7,9-dihydroxy-10,11-dihydrodibenz[b,f]oxepin-10-one], the inhibition at 30 µM was ≥ 50%.

Regarding `Oc1cc(O)c2c(c1)Oc1ccc(Cl)cc1CC2` [Compound 20, 8-chloro-10,11-dihydrodibenz[b,f]oxepin-1,3-diol], the inhibition at 30 µM was ≤ 50%.

For `O=C1Cc2ccc(F)cc2Oc2cc(O)cc(O)c21` [Compound 23, 3-fluoro-7,9-dihydroxy-10,11-dihydrodibenz[b,f]oxepin-10-one], the inhibition at 30 µM is ≥ 50%.

Take `Oc1cc(O)c2c(c1)Oc1cc(F)ccc1CC2` [Compound 24, 7-fluoro-10,11-dihydrodibenz[b,f]oxepin-1,3-diol]: the inhibition at 30 µM is ≥ 50%.

`O=C1Cc2ccc(Cl)c(Cl)c2Oc2cc(O)cc(O)c21` [Compound 27, 3,4-dichloro-7,9-dihydroxy-10,11-dihydrodibenz[b,f]oxepin-10-one]: the inhibition at 30 µM was ≥ 50%.

Turning to `Oc1cc(O)c2c(c1)Oc1c(ccc(Cl)c1Cl)CC2` [Compound 28, 6,7-dichloro-10,11-dihydrodibenz[b,f]oxepin-1,3-diol], the inhibition at 30 µM is ≤ 50%.

Regarding `O=C1Cc2cc(F)ccc2Oc2cc(O)cc(O)c21` [Compound 29, 2-fluoro-7,9-dihydroxy-10,11-dihydrodibenz[b,f]oxepin-10-one], the inhibition at 30 µM is ≥ 50%.

Turning to `Oc1cc(O)c2c(c1)Oc1ccc(F)cc1CC2` [Compound 30, 8-fluoro-10,11-dihydrodibenz[b,f]oxepin-1,3-diol], the inhibition at 30 µM was ≥ 50%.

Consider `O=C1Cc2cc(Cl)cc(Cl)c2Oc2cc(O)cc(O)c21` [Compound 34, 2,4-dichloro-7,9-dihydroxy-10,11-dihydrodibenz[b,f]oxepin-10-one], for which the inhibition at 30 µM is ≥ 50%.

Take `Oc1cc(O)c2c(c1)Oc1c(Cl)cc(Cl)cc1CC2` [Compound 35, 6,8-dichloro-10,11-dihydrodibenz[b,f]oxepin-1,3-diol]: the inhibition at 30 µM is ≤ 50%.

Turning to `O=C1Cc2cccc(Cl)c2Oc2cc(O)cc(O)c21` [Compound 36, 4-chloro-7,9-dihydroxy-10,11-dihydrodibenz[b,f]oxepin-10-one], the inhibition at 30 µM was ≥ 50%.

Consider `Oc1cc(O)c2c(c1)Oc1c(Cl)cccc1CC2` [Compound 37, 6-chloro-10,11-dihydrodibenz[b,f]oxepin-1,3-diol], for which the inhibition at 30 µM is ≥ 50%.

Turning to `O=C1Cc2cc(C(F)(F)F)ccc2Oc2cc(O)cc(O)c21` [Compound 38, 7,9-dihydroxy-2-trifluoromethyl-10,11-dihydrodibenz[b,f]oxepin-10-one], the inhibition at 30 µM is ≥ 50%.

Take `Oc1cc(O)c2c(c1)Oc1ccc(C(F)(F)F)cc1CC2` [Compound 39, 8-trifluoromethyl-10,11-dihydrodibenz[b,f]oxepin-1,3-diol]: the inhibition at 30 µM is ≥ 50%.

With `O=C1Cc2cc(O)c(O)cc2Oc2cc(O)cc(O)c21` [Compound 40, 2,3,7,9-tetrahydroxy-10,11-dihydrodibenz[b,f]oxepin-10-one], the inhibition at 30 µM is ≤ 50%.

On to `Oc1cc2c(cc1O)Sc1ccccc1CC2` [Compound 44, 10,11-dihydrodibenz[b,f]thiepin-2,3-diol], for which the inhibition at 30 µM was ≥ 50%.

As for `CC(=O)c1c(O)cc(O)c2c1Oc1ccccc1CC2` [Compound 47, 4-acetyl-10,11-dihydrodibenz[b,f]oxepin-1,3-diol], the inhibition at 30 µM is ≥ 50%.

`O=C1Cc2c(F)cccc2Oc2cc(O)cc(O)c21` [Compound 49, 1-fluoro-7,9-dihydroxy-10,11-dihydrodibenz[b,f]oxepin-10-one]: the inhibition at 30 µM was ≥ 50%.

In the case of `O=C1Cc2c(F)cccc2Oc2cc(F)c(F)cc21` [Compound 63, 1,7,8-trifluoro-10,11-dihydrodibenz[b,f]oxepin-10-one], the inhibition at 30 µM is ≥ 50%.

As to `O=C1Cc2cc([N+](=O)[O-])ccc2Oc2cc(O)cc(O)c21` [Compound 70, 2-nitro-7,9-dihydroxy-10,11-dihydrodibenz[b,f]oxepin-10-one], the inhibition at 30 µM is ≥ 50%.

`Nc1ccc2c(c1)CC(=O)c1c(O)cc(O)cc1O2` [Compound 71, 2-amino-7,9-dihydroxy-10,11-dihydrodibenz[b,f]oxepin-10-one]: the inhibition at 30 µM is ≥ 50%.

In the case of `Nc1ccc2c(c1)CCc1c(O)cc(O)cc1O2` [Compound 77, 8-amino-10,11-dihydrodibenz[b,f]oxepin-1,3-diol], the inhibition at 30 µM is ≤ 50%.

For `Oc1cc(O)c2c(c1)Sc1ccccc1CC2` [Compound 81, 10,11-dihydrodibenzo[b,f]thiepin-1,3-diol], the inhibition at 30 µM was ≥ 50%.

Take `CC(=O)c1c(O)c2c(c(C(C)=O)c1O)Sc1ccccc1CC2` [Compound 84, 2,4-diacetyl-10,11-dihydrodibenzo[b,f]thiepin-1,3-diol]: the inhibition at 30 µM is ≥ 50%.

Take `CC(=O)c1c(O)cc(O)c2c1Sc1ccccc1CC2` [Compound 85, 4-acetyl-10,11-dihydrodibenzo[b,f]thiepin-1,3-diol]: the inhibition at 30 µM is ≥ 50%.

For the compound `CC(=O)c1ccc2c(c1)CCc1c(O)cc(O)cc1S2` [Compound 86, 8-acetyl-10,11-dihydrodibenzo[b,f]thiepin-1,3-diol], the inhibition at 30 µM is ≥ 50%.

As for `CCC(=O)c1c(O)c2c(c(C(=O)CC)c1O)Sc1ccccc1CC2` [Compound 89, 2,4-dipropionyl-10,11-dihydrodibenzo[b,f]thiepin-1,3-diol], the inhibition at 30 µM is ≥ 50%.

As for `CCC(=O)c1c(O)cc(O)c2c1Sc1ccccc1CC2` [Compound 90, 4-propionyl-10,11-dihydrodibenzo[b,f]thiepin-1,3-diol], the inhibition at 30 µM is ≥ 50%.

As to `CCC(=O)c1ccc2c(c1)CCc1c(O)cc(O)cc1S2` [Compound 91, 8-propionyl-10,11-dihydrodibenzo[b,f]thiepin-1,3-diol], the inhibition at 30 µM is ≥ 50%.

As for `CC(=O)c1ccc2c(c1)C=Cc1cc(O)c(O)cc1S2` [Compound 92, 8-acetyldibenzo[b,f]thiepin-2,3-diol], the inhibition at 30 µM is ≥ 50%.

Regarding `CC(=O)Nc1ccc2c(c1)CC(=O)c1c(O)cc(O)cc1O2` [Compound 94, N-acetyl-2-amino-7,9-dihydroxy-10,11-dihydrodibenzo[b,f]oxepin-10-one], the inhibition at 30 µM is ≥ 50%.

Regarding `CC(=O)c1ccc2c(c1)CCc1c(O)cc(O)cc1O2` [Compound 95, 8-acetyl-10,11-dihydrodibenzo[b,f]oxepin-1,3-diol], the inhibition at 30 µM was ≥ 50%.

Take `CC(O)c1ccc2c(c1)CCc1c(O)cc(O)cc1O2` (stereo not shown) [Compound 96, 8-(1-hydroxyethyl)-10,11-dihydrodibenzo[b,f]oxepin-1,3-diol]: the inhibition at 30 µM was ≥ 50%.

Turning to `O=C(O)Cc1ccc2c(c1)CCc1c(O)cc(O)cc1O2` [Compound 97, 7,9-dihydroxy-10,11-dihydrodibenzo[b,f]oxepin-2-acetic acid], the inhibition at 30 µM is ≤ 50%.

As for `Cc1ccc2c(c1)CC(=O)c1cc(O)c(O)cc1S2` [Compound 104, 7,8-dihydroxy-2-methyl-10,11-dihydrodibenzo[b,f]thiepin-10-one], the inhibition at 30 µM was ≥ 50%.

On to `CC(C)c1ccc2c(c1)CC(=O)c1cc(O)c(O)cc1S2` [Compound 106, 7,8-dihydroxy-2-(2-propyl)-10,11-dihydrodibenzo[b,f]thiepin-10-one], for which the inhibition at 30 µM was ≥ 50%.
